Source: ChEMBL document CHEMBL1201862, “PubChem BioAssay data set” (2004)
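96-well plates; 48 h exposure; 5 concentrations. Endpoints by linear interpolation between flanking doses. Not reached: highest tested concentration assigned. At the GI50, growth is halved.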 Active and inactive are the calls of the source. Cut-off read from the data, not from the text of the source: active = GI50 up to about 1.1 µM and inactive = higher.

Key:
Test in all cases: growth of human tumour cells (NCI), 48 h
786-0 = tested on: 786-0
A498 = tested on: A498
A549 = tested on: A549
ACHN = tested on: ACHN
BT-549 = tested on: BT-549
CAKI-1 = tested on: CAKI-1
CCRF-CEM = tested on: CCRF-CEM
COLO 205 = tested on: COLO 205
DU-145 = tested on: DU-145
EKVX = tested on: EKVX
HCC 2998 = tested on: HCC 2998
HCT-116 = tested on: HCT-116
HCT-15 = tested on: HCT-15
HL-60 = tested on: HL-60
HOP-62 = tested on: HOP-62
HOP-92 = tested on: HOP-92
HT-29 = tested on: HT-29
Hs-578T = tested on: Hs-578T
IGROV-1 = tested on: IGROV-1
K562 = tested on: K562
KM12 = tested on: KM12
LOX IMVI = tested on: LOX IMVI
M14 = tested on: M14
MCF7 = tested on: MCF7
MDA-MB-231 = tested on: MDA-MB-231
MDA-MB-435 = tested on: MDA-MB-435
MDA-N = tested on: MDA-N
MOLT-4 = tested on: MOLT-4
Malme-3M = tested on: Malme-3M
NCI-H226 = tested on: NCI-H226
NCI-H23 = tested on: NCI-H23
NCI-H460 = tested on: NCI-H460
NCI-H522 = tested on: NCI-H522
NCI/ADR-RES = tested on: NCI/ADR-RES
OVCAR-3 = tested on: OVCAR-3
OVCAR-4 = tested on: OVCAR-4
OVCAR-5 = tested on: OVCAR-5
OVCAR-8 = tested on: OVCAR-8
PC-3 = tested on: PC-3
RPMI-8226 = tested on: RPMI-8226
RXF 393 = tested on: RXF 393
SF-268 = tested on: SF-268
SF-295 = tested on: SF-295
SF-539 = tested on: SF-539
SK-MEL-28 = tested on: SK-MEL-28
SK-MEL-2 = tested on: SK-MEL-2
SK-MEL-5 = tested on: SK-MEL-5
SK-OV-3 = tested on: SK-OV-3
SN12C = tested on: SN12C
SNB-19 = tested on: SNB-19
SNB-75 = tested on: SNB-75
SR = tested on: SR
SW-620 = tested on: SW-620
T47D = tested on: T47D
TK-10 = tested on: TK-10
U-251 = tested on: U-251
UACC-257 = tested on: UACC-257
UACC-62 = tested on: UACC-62
UO-31 = tested on: UO-31
KM-20L2 = tested on: KM-20L2

Measured: GI50

[N-]=[N+]=NC1C(O)C(CO)OC1n1cnc2c(N)ncnc21 (stereo not given)
active: HL-60 0.522 µM
inactive: 786-0 30.8 µM | A498 66.8 µM | A549 47.5 µM | ACHN 5.28 µM | BT-549 54.8 µM | CAKI-1 40.9 µM | CCRF-CEM 10.1 µM | COLO 205 > 100 µM | DU-145 3.04 µM | EKVX > 100 µM | HCC 2998 29.7 µM | HCT-116 42.3 µM | HOP-62 84.9 µM | HOP-92 45.7 µM | HT-29 31 µM | Hs-578T > 100 µM | IGROV-1 92.7 µM | K562 19.3 µM | KM12 74.3 µM | LOX IMVI 24.7 µM | M14 36.6 µM | MCF7 5.21 µM | MDA-MB-231 > 100 µM | MDA-MB-435 82.6 µM | MDA-N 71.3 µM | MOLT-4 9.51 µM | Malme-3M > 100 µM | NCI-H226 51.6 µM | NCI-H23 30.5 µM | NCI-H460 6.34 µM | NCI-H522 65.8 µM | NCI/ADR-RES 27.1 µM | OVCAR-3 > 100 µM | OVCAR-4 > 100 µM | OVCAR-5 > 100 µM | OVCAR-8 37.9 µM | PC-3 74.3 µM | RPMI-8226 45.8 µM | RXF 393 66.2 µM | SF-268 51.1 µM | SF-295 44.1 µM | SF-539 27.9 µM | SK-MEL-28 > 100 µM | SK-MEL-2 > 100 µM | SK-MEL-5 > 100 µM | SK-OV-3 87.5 µM | SN12C 25.9 µM | SNB-19 59.4 µM | SNB-75 36.4 µM | SR 1.67 µM | SW-620 60.5 µM | T47D 8.83 µM | TK-10 > 100 µM | U-251 > 100 µM | UACC-257 > 100 µM | UACC-62 99.5 µM | UO-31 36.6 µM
> 100 µM: HCT-15

CC1=NN2C(=N)/C(=C/c3ccccc3)C(=O)N=C2S1
inactive: 786-0 > 100 µM | A498 > 100 µM | A549 > 100 µM | ACHN > 100 µM | BT-549 > 100 µM | CAKI-1 > 100 µM | CCRF-CEM > 100 µM | COLO 205 > 100 µM | DU-145 > 100 µM | EKVX > 100 µM | HCC 2998 > 100 µM | HCT-116 > 100 µM | HL-60 > 100 µM | HOP-62 > 100 µM | HOP-92 > 100 µM | HT-29 > 100 µM | Hs-578T > 100 µM | IGROV-1 > 100 µM | K562 > 100 µM | KM12 > 100 µM | LOX IMVI > 100 µM | M14 > 100 µM | MDA-MB-231 > 100 µM | MDA-MB-435 > 100 µM | MDA-N > 100 µM | MOLT-4 > 100 µM | Malme-3M > 100 µM | NCI-H226 > 100 µM | NCI-H23 > 100 µM | NCI-H460 > 100 µM | NCI-H522 > 36.9 µM | NCI/ADR-RES > 33.1 µM | OVCAR-3 > 100 µM | OVCAR-4 > 100 µM | OVCAR-5 > 100 µM | OVCAR-8 > 100 µM | PC-3 > 100 µM | RPMI-8226 > 100 µM | RXF 393 > 100 µM | SF-268 > 100 µM | SF-295 > 100 µM | SF-539 > 100 µM | SK-MEL-28 > 100 µM | SK-MEL-2 > 100 µM | SK-MEL-5 > 100 µM | SK-OV-3 > 100 µM | SN12C > 100 µM | SNB-19 > 100 µM | SNB-75 > 100 µM | SR > 100 µM | SW-620 > 100 µM | T47D > 100 µM | TK-10 > 100 µM | U-251 > 100 µM | UACC-257 > 100 µM | UACC-62 > 100 µM | UO-31 > 100 µM
active: MCF7 0.867 µM
> 100 µM: HCT-15

Cc1ccc(NCCN(C)C)c2c(=O)c3cc(O)ccc3oc12
active: MOLT-4 1.11 µM | NCI-H460 0.889 µM | SR 0.083 µM
9.08 µM: HCT-15
inactive: 786-0 5.24 µM | A498 14.9 µM | A549 6.25 µM | ACHN 4.62 µM | BT-549 16.7 µM | CAKI-1 10.6 µM | CCRF-CEM 2.28 µM | COLO 205 10.8 µM | DU-145 15.1 µM | EKVX 15.7 µM | HCC 2998 11.9 µM | HCT-116 4.86 µM | HL-60 2.29 µM | HOP-62 11 µM | HOP-92 11.1 µM | HT-29 11.2 µM | Hs-578T 6.41 µM | IGROV-1 12.3 µM | K562 4.09 µM | KM12 11.2 µM | LOX IMVI 9.53 µM | M14 12.4 µM | MCF7 5.38 µM | MDA-MB-231 9.04 µM | MDA-MB-435 12 µM | MDA-N 10.7 µM | Malme-3M 13.9 µM | NCI-H226 15.8 µM | NCI-H23 12.6 µM | NCI-H522 8.15 µM | NCI/ADR-RES 10.6 µM | OVCAR-3 16.5 µM | OVCAR-4 17 µM | OVCAR-5 15.5 µM | OVCAR-8 6.97 µM | PC-3 11.8 µM | RPMI-8226 5.08 µM | RXF 393 11.9 µM | SF-268 5.35 µM | SF-295 10.9 µM | SF-539 8.28 µM | SK-MEL-28 14.8 µM | SK-MEL-2 20.6 µM | SK-MEL-5 11.6 µM | SK-OV-3 13.4 µM | SN12C 7.59 µM | SNB-19 11.3 µM | SNB-75 4.79 µM | SW-620 4.12 µM | T47D 16.5 µM | TK-10 14.6 µM | U-251 8.2 µM | UACC-257 18.3 µM | UACC-62 10.1 µM | UO-31 9.2 µM

Cc1ccc2cccc(-c3cccc4ccccc34)c2n1
21.7 µM: HCT-15
inactive: 786-0 27.4 µM | A498 20.4 µM | A549 29.5 µM | ACHN 24.4 µM | BT-549 30.3 µM | CAKI-1 26.6 µM | CCRF-CEM 19.8 µM | COLO 205 23.7 µM | DU-145 36.8 µM | EKVX 21.4 µM | HCC 2998 12.1 µM | HCT-116 17.8 µM | HL-60 3.33 µM | HOP-62 25.2 µM | HOP-92 12.6 µM | HT-29 20.7 µM | Hs-578T 23.5 µM | IGROV-1 26.5 µM | K562 4.66 µM | KM12 15 µM | LOX IMVI 14.9 µM | M14 17.2 µM | MCF7 > 10 µM | MDA-MB-231 22.9 µM | MDA-MB-435 2.69 µM | MDA-N 4.2 µM | MOLT-4 13.2 µM | Malme-3M 4.63 µM | NCI-H226 20.5 µM | NCI-H23 32.9 µM | NCI-H460 27.5 µM | NCI-H522 23.7 µM | NCI/ADR-RES 26.1 µM | OVCAR-3 25.2 µM | OVCAR-4 24.9 µM | OVCAR-5 18.3 µM | OVCAR-8 22.1 µM | PC-3 29.2 µM | RPMI-8226 13.1 µM | RXF 393 13.6 µM | SF-268 25.5 µM | SF-295 22.9 µM | SF-539 24 µM | SK-MEL-28 26.6 µM | SK-MEL-2 15 µM | SK-MEL-5 16.1 µM | SK-OV-3 23.7 µM | SN12C 25.6 µM | SNB-19 46.9 µM | SNB-75 8.87 µM | SR 12.6 µM | SW-620 25.2 µM | T47D 15.8 µM | TK-10 11.3 µM | U-251 12.7 µM | UACC-257 29.9 µM | UACC-62 19.5 µM | UO-31 14.3 µM

COc1ccc(/C=C\c2cc(OC)c(OC)c(OC)c2)cc1O [COMBRETASTATIN A4]
inactive: BT-549 > 10 µM | EKVX 1.22 µM | HT-29 1.72 µM | KM-20L2 1.61 µM | T47D 41 µM
active: DU-145 0.01 µM | Hs-578T 0.583 µM | OVCAR-5 0.34 µM | TK-10 0.204 µM
